Test results taken from patent publication US10183014B2, “Ocular formulations for drug-delivery and protection of the anterior segment of the eye” (PanOptica, Inc., priority 2014, dated 2019).
Like-named read-outs stand apart in the source and are kept apart here.

Assays:
[1] = Ocular pharmacokinetics of formulations, Example 20-5; assay type: in vivo, Dutch Belted rabbits; details: TRIS 0.60%, glycerol 2%, HEC 0.2%, HPMC 0.08%, Vitamin K3 1 μM, 1 hr post dose on Day 5
Experimental: The study design (Table 19-1) consisted of forty-seven (47) Dutch Belted rabbits, each receiving a 30 μL bilateral topical ocular dose. Various suspension formulations of the present application were evaluated and compared against a cyclodextrin-based eye drops solution (Control Group 1, Table 19-1). Formula II or Compound-I was used in the test suspensions as well as the Eye Drops solution.
Ocular sampling occurred one hour following the first daily dose on Day 5 for all groups. Whole blood samples using K2EDTA as an anticoagulant were collected from all animals on Day 5, 1 hour post dose. The whole blood was placed on ice until samples were spun in a centrifuge to separate the plasma. Aqueous humor, conjunctiva, cornea, central retina, peripheral retina, central choroid, and peripheral choroid samples were collected following necropsy. Samples were then frozen at −70° C. or lower. For all Groups 1-15, plasma, central retina, central choroid, and cornea samples were assayed. For Group 5 only, samples were analyzed for Vitamin K3.
An analytical method for the analysis of Vitamin K3 was determined in plasma, central retina, central choroid, and cornea samples from Group 5 animals. A calibration curve prepared in control vitreous humor was used to determine the concentration of Vitamin K3. Internal standard (IS) responses were inconsistent for the central choroid and plasma samples. Thus, positive plasma results were likely due to the reduced IS response.

MINK1 = MINK1 (Homo sapiens, UniProt Q8N4C8); experiment: In vitro inhibition of tyrosine kinases; assay type: biochemical; details: read-out: Mean % Inhibition at 1 μM Compound-I; 1 μM (568.9 ng/mL)
EPHB-4 = EPHB-4 (Homo sapiens, UniProt P54760); experiment: In vitro inhibition of tyrosine kinases; assay type: biochemical; details: read-out: Mean % Inhibition at 1 μM Compound-I; 1 μM (568.9 ng/mL)
FGR = FGR (Homo sapiens, UniProt P09769); experiment: In vitro inhibition of tyrosine kinases; assay type: biochemical; details: read-out: Mean % Inhibition at 1 μM Compound-I; 1 μM (568.9 ng/mL)
[2] = Ocular toxicology studies; assay type: in vivo, beagle dogs
Source text: Retinal function was normal in all test article and vehicle treated groups during full-field electroretinograms performed in rabbits.

ABL1 Y253F = ABL1 Y253F (Homo sapiens, UniProt P00519, Y253F); experiment: In vitro inhibition of tyrosine kinases; assay type: biochemical; details: read-out: Mean % Inhibition at 1 μM Compound-I; 1 μM (568.9 ng/mL)

Sequence of FGR (P09769 whole entry, species assumed): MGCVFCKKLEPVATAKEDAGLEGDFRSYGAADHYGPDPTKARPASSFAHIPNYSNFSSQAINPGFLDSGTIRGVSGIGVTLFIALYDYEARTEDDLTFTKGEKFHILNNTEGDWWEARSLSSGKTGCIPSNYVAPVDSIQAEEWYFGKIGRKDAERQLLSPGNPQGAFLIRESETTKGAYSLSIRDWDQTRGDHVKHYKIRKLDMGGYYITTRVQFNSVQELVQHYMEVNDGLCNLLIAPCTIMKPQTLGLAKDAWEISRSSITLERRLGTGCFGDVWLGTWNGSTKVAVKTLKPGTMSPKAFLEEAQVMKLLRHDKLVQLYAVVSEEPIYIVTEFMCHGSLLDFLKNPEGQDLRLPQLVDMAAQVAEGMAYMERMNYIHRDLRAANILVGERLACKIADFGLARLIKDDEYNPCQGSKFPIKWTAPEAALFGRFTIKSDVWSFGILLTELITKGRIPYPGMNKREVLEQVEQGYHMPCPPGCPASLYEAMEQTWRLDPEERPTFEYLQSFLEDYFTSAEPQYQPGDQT
Sequence of EPHB-4 (P54760 16-987, species assumed): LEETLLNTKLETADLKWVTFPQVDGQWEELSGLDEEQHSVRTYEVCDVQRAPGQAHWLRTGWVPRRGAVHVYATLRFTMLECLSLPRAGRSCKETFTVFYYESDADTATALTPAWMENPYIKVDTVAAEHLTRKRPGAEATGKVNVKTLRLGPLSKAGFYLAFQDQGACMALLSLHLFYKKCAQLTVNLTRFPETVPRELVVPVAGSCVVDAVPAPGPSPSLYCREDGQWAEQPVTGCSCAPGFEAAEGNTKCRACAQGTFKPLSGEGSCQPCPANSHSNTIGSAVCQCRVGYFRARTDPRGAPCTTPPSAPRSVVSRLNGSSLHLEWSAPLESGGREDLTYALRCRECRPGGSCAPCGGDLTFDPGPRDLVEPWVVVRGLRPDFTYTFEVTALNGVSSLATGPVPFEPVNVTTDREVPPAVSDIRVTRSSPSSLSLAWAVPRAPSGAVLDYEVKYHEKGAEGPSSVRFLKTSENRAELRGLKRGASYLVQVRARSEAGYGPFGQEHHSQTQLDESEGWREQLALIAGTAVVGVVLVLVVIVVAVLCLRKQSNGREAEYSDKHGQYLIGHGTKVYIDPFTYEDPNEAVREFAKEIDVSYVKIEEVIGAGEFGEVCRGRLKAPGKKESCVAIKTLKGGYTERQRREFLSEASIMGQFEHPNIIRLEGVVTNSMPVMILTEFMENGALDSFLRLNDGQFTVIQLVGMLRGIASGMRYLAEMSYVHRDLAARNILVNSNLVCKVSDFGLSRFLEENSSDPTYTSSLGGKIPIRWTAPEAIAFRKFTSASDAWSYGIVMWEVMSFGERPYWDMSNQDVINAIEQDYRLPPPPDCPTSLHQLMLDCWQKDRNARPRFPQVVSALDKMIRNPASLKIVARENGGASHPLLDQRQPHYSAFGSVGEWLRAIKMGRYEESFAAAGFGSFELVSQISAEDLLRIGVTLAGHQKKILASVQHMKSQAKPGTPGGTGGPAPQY
Sequence of MINK1 (Q8N4C8 whole entry, species assumed): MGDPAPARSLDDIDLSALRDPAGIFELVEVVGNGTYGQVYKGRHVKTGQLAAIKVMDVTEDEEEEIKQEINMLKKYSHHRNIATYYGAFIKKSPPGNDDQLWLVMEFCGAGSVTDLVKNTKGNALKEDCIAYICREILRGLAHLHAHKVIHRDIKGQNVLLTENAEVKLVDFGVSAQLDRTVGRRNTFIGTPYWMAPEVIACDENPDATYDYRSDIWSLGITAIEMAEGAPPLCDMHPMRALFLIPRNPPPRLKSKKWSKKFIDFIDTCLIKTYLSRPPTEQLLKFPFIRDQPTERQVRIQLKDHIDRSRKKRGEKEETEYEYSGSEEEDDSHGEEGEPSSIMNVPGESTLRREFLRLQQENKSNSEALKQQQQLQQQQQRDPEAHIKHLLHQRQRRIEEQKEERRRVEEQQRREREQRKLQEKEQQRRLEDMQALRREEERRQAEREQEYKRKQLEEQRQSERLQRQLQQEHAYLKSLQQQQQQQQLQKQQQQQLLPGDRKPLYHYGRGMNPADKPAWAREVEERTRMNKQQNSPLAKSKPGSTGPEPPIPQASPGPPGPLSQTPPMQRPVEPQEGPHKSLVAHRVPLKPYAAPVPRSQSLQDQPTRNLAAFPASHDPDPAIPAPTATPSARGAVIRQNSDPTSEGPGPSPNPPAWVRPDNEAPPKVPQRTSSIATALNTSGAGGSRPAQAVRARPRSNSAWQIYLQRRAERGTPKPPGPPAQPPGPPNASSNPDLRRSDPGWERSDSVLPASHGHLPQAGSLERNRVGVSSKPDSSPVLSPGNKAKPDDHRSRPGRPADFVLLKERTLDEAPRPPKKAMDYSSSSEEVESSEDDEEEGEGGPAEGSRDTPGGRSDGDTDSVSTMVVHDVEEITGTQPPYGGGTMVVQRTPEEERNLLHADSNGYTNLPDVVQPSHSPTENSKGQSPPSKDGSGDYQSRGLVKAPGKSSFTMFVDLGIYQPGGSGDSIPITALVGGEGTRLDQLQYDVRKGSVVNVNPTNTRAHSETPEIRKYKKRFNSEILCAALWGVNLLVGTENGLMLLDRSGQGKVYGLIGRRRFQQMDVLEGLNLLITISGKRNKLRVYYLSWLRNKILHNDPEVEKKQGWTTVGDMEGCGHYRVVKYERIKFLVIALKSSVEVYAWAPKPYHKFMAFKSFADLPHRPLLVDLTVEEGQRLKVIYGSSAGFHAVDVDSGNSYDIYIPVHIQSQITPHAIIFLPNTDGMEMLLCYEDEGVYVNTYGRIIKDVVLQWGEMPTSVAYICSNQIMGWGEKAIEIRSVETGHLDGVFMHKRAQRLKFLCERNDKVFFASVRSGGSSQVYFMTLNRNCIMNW

Cl.NC(=O)c1c(OCc2c(F)cc(Br)cc2F)nsc1NC(=O)NCCCCN1CCCC1 [Compound-I, 3-[(4-bromo-2,6-difluorophenyl)methoxy]-5-[[[[4-(1-pyrrolidinyl)butyl]amino]carbonyl]amino]-4-isothiazolecarboxamide hydrochloride]
concentration at 1 h ([1]; Dutch Belted, rabbit, plasma, topical, 30 μL per eye, Group 11: 6 mg/mL suspension, 50 μm particles, pH 6, QD for 4 days, read-out: Plasma concentration): 0.00772 µM
concentration at 1 h ([1]; Dutch Belted, rabbit, plasma, topical, 30 μL per eye, Group 12: 10 mg/mL suspension, 50 μm particles, pH 6, QD for 4 days, read-out: Plasma concentration): 0.00861 µM
Plasma concentration ([1]; Group 2: 4 mg/mL suspension, 30 μm particles, pH 6, QD for 4 days): 4.64 nM
concentration at 1 h ([1]; Group 2: 4 mg/mL suspension, 30 μm particles, pH 6, QD for 4 days, read-out: Central Choroid concentration): 0.135 µM
concentration at 1 h ([1]; Group 2: 4 mg/mL suspension, 30 μm particles, pH 6, QD for 4 days, read-out: Central Retina concentration): 0.0506 µM
concentration at 1 h ([1]; Group 2: 4 mg/mL suspension, 30 μm particles, pH 6, QD for 4 days, read-out: Cornea concentration): 7.48 µM
Plasma concentration ([1]; Group 3: 4 mg/mL suspension, 3 μm particles, pH 6, QD for 4 days): 7.04 nM
concentration at 1 h ([1]; Group 3: 4 mg/mL suspension, 3 μm particles, pH 6, QD for 4 days, read-out: Central Choroid concentration): 0.159 µM
concentration at 1 h ([1]; Group 3: 4 mg/mL suspension, 3 μm particles, pH 6, QD for 4 days, read-out: Central Retina concentration): 0.0928 µM
concentration at 1 h ([1]; Group 3: 4 mg/mL suspension, 3 μm particles, pH 6, QD for 4 days, read-out: Cornea concentration): 10.2 µM
Plasma concentration ([1]; Group 4: 4 mg/mL suspension (Control), 50 μm particles (Native), pH 6, QD for 4 days): 5.98 nM
concentration at 1 h ([1]; Group 4: 4 mg/mL suspension (Control), 50 μm particles (Native), pH 6, QD for 4 days, read-out: Central Choroid concentration): 0.128 µM
concentration at 1 h ([1]; Group 4: 4 mg/mL suspension (Control), 50 μm particles (Native), pH 6, QD for 4 days, read-out: Central Retina concentration): 0.0735 µM
concentration at 1 h ([1]; Group 4: 4 mg/mL suspension (Control), 50 μm particles (Native), pH 6, QD for 4 days, read-out: Cornea concentration): 3.93 µM
Plasma concentration ([1]; Group 6: 4 mg/mL suspension, 50 μm particles, pH 6, BID for 4 days): 4.15 nM
concentration at 1 h ([1]; Group 6: 4 mg/mL suspension, 50 μm particles, pH 6, BID for 4 days, read-out: Central Choroid concentration): 0.199 µM
concentration at 1 h ([1]; Group 6: 4 mg/mL suspension, 50 μm particles, pH 6, BID for 4 days, read-out: Central Retina concentration): 0.0441 µM
concentration at 1 h ([1]; Group 6: 4 mg/mL suspension, 50 μm particles, pH 6, BID for 4 days, read-out: Cornea concentration): 6.41 µM
Plasma concentration ([1]; Group 8: 1 mg/mL suspension, 50 μm particles, pH 6, BID for 4 days): 2.11 nM
concentration at 1 h ([1]; Group 8: 1 mg/mL suspension, 50 μm particles, pH 6, BID for 4 days, read-out: Central Choroid concentration): 0.0708 µM
concentration at 1 h ([1]; Group 8: 1 mg/mL suspension, 50 μm particles, pH 6, BID for 4 days, read-out: Central Retina concentration): 0.0342 µM
concentration at 1 h ([1]; Group 8: 1 mg/mL suspension, 50 μm particles, pH 6, BID for 4 days, read-out: Cornea concentration): 1.72 µM
Plasma concentration ([1]; Group 10: 2 mg/mL suspension, 50 μm particles, pH 6, BID for 4 days): 3.76 nM
concentration at 1 h ([1]; Group 10: 2 mg/mL suspension, 50 μm particles, pH 6, BID for 4 days, read-out: Central Retina concentration): 0.0507 µM
Plasma concentration ([1]; Group 13 (different batch of Compound-I): 4 mg/mL suspension, 50 μm particles, pH 6, QD for 4 days): 7.09 nM
concentration at 1 h ([1]; Group 13 (different batch of Compound-I): 4 mg/mL suspension, 50 μm particles, pH 6, QD for 4 days, read-out: Central Retina concentration): 0.0766 µM
concentration at 1 h ([1]; Group 13 (different batch of Compound-I): 4 mg/mL suspension, 50 μm particles, pH 6, QD for 4 days, read-out: Cornea concentration): 8.55 µM
Plasma concentration ([1]; Group 14 (different batch of Compound-I): 4 mg/mL suspension, 50 μm particles, pH 6, QD for 4 days): 2.68 nM
concentration at 1 h ([1]; Group 14 (different batch of Compound-I): 4 mg/mL suspension, 50 μm particles, pH 6, QD for 4 days, read-out: Central Choroid concentration): 0.203 µM
concentration at 1 h ([1]; Group 14 (different batch of Compound-I): 4 mg/mL suspension, 50 μm particles, pH 6, QD for 4 days, read-out: Central Retina concentration): 0.0384 µM
concentration at 1 h ([1]; Group 14 (different batch of Compound-I): 4 mg/mL suspension, 50 μm particles, pH 6, QD for 4 days, read-out: Cornea concentration): 3.88 µM
Plasma concentration ([1]; Group 15 (different batch of Compound-I): 4 mg/mL suspension, 50 μm particles, pH 6, QD for 4 days): 4.69 nM
concentration at 1 h ([1]; Group 15 (different batch of Compound-I): 4 mg/mL suspension, 50 μm particles, pH 6, QD for 4 days, read-out: Central Choroid concentration): 0.196 µM
concentration at 1 h ([1]; Group 15 (different batch of Compound-I): 4 mg/mL suspension, 50 μm particles, pH 6, QD for 4 days, read-out: Central Retina concentration): 0.0630 µM
concentration at 1 h ([1]; Group 15 (different batch of Compound-I): 4 mg/mL suspension, 50 μm particles, pH 6, QD for 4 days, read-out: Cornea concentration): 4.23 µM
inhibition at 1 µM (MINK1): 100%
inhibition at 1 µM (EPHB-4): 80%
inhibition at 1 µM (FGR): 91%
Cornea concentration above which ocular side effects were more consistently observed ([2]; discomfort, inflammation, corneal thinning): exceeded 100 μM
Corneal tissue exposure ([2]; ophthalmic gel drops, topical ocular dosing): ≥ 100 µM
inhibition at 1 µM (ABL1 Y253F): 93%
